According to PubChem BioAssay AID1919013 (Molecular Pharmacology Branch, DTP, NCI, 2023):
Several values for one entry are separate records, joined by “and”; a condition that tells them apart may be missing. Identical values can stand only once. Each block holds one compound with its values, some of them ahead of it.

System: LG0703-F498-PDC complex spheroid growth
Experiment: Anticancer human tumor LG0703-F498-PDC patient-derived lung adenocarcinoma cell line growth inhibition [AhR]
Conditions: for viability, T/C: stronger effect = lower value
Method in brief: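 Complex tumor spheroids co-cultured with HUVEC and human MSC stroma; AhR antagonists tested in combination with standard-of-care and investigational agents. Top concentration at or near clinical Cmax (else 10 microM), half-log dilutions; growth expressed as percent test/control.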

[1] = curve of first compound, second compound 0.1 µM
[2] = curve of first compound, second compound 0.316 µM
[3] = curve of first compound, second compound 1 µM
[4] = curve of first compound, second compound 3.16 µM
[5] = curve of first compound, second compound 10 µM
[6] = second compound 0.1 µM, first compound 0.0316 µM
[7] = second compound 0.1 µM, first compound 0.1 µM
[8] = second compound 0.1 µM, first compound 0.316 µM
[9] = second compound 0.1 µM, first compound 1 µM
[10] = second compound 0.1 µM, first compound 3.16 µM
[11] = second compound 0.1 µM, first compound 10 µM
[12] = second compound 0.316 µM, first compound 0.0316 µM
[13] = second compound 0.316 µM, first compound 0.1 µM
[14] = second compound 0.316 µM, first compound 0.316 µM
[15] = second compound 0.316 µM, first compound 1 µM
[16] = second compound 0.316 µM, first compound 3.16 µM
[17] = second compound 0.316 µM, first compound 10 µM
[18] = second compound 1 µM, first compound 0.0316 µM
[19] = second compound 1 µM, first compound 0.1 µM
[20] = second compound 1 µM, first compound 0.316 µM
[21] = second compound 1 µM, first compound 1 µM
[22] = second compound 1 µM, first compound 3.16 µM
[23] = second compound 1 µM, first compound 10 µM
[24] = second compound 3.16 µM, first compound 0.0316 µM
[25] = second compound 3.16 µM, first compound 0.1 µM
[26] = second compound 3.16 µM, first compound 0.316 µM
[27] = second compound 3.16 µM, first compound 1 µM
[28] = second compound 3.16 µM, first compound 3.16 µM
[29] = second compound 3.16 µM, first compound 10 µM
[30] = second compound 10 µM, first compound 0.0316 µM
[31] = second compound 10 µM, first compound 0.1 µM
[32] = second compound 10 µM, first compound 0.316 µM
[33] = second compound 10 µM, first compound 1 µM
[34] = second compound 10 µM, first compound 3.16 µM
[35] = second compound 10 µM, first compound 10 µM
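Also: luminescence taken as a proxy for viable cell amount.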
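For viability, T/C in this document: percent of DMSO vehicle control where 100% means growth equal to vehicle.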

- IC50 [1]: 116 nM
- IC50 [2]: 115 nM
- IC50 [3]: 99.1 nM
- IC50 [4]: 24.9 nM
- IC50 [5]: < 9.49 nM
SMILES: O=C(C=Cn1cnc(-c2cc(C(F)(F)F)cc(C(F)(F)F)c2)n1)NNc1cnccn1 + Cc1cncc(-c2nc(NCCc3c[nH]c4ccccc34)c3ncn(C(C)C)c3n2)c1
- viability, T/C (second compound 0.1 µM, first compound 0.00949 µM): 87.9%
- viability, T/C (second compound 0.1 µM, first compound 0.03 µM): 70.4%
- viability, T/C (second compound 0.1 µM, first compound 0.0949 µM): 49.8%
- viability, T/C (second compound 0.1 µM, first compound 0.3 µM): 40%
- viability, T/C (second compound 0.1 µM, first compound 0.949 µM): 37.4%
- viability, T/C (second compound 0.1 µM, first compound 3 µM): 27.9%
- viability, T/C (second compound 0.316 µM, first compound 0.00949 µM): 82.4%
- viability, T/C (second compound 0.316 µM, first compound 0.03 µM): 69.7%
- viability, T/C (second compound 0.316 µM, first compound 0.0949 µM): 51.8%
- viability, T/C (second compound 0.316 µM, first compound 0.3 µM): 36.2%
- viability, T/C (second compound 0.316 µM, first compound 0.949 µM): 37.4%
- viability, T/C (second compound 0.316 µM, first compound 3 µM): 25%
- viability, T/C (second compound 1 µM, first compound 0.00949 µM): 82.6%
- viability, T/C (second compound 1 µM, first compound 0.03 µM): 70.9%
- viability, T/C (second compound 1 µM, first compound 0.0949 µM): 48.8%
- viability, T/C (second compound 1 µM, first compound 0.3 µM): 38.2%
- viability, T/C (second compound 1 µM, first compound 0.949 µM): 29.2%
- viability, T/C (second compound 1 µM, first compound 3 µM): 27.9%
- viability, T/C (second compound 3.16 µM, first compound 0.00949 µM): 62.3%
- viability, T/C (second compound 3.16 µM, first compound 0.03 µM): 47.4%
- viability, T/C (second compound 3.16 µM, first compound 0.0949 µM): 34.3%
- viability, T/C (second compound 3.16 µM, first compound 0.3 µM): 26%
- viability, T/C (second compound 3.16 µM, first compound 0.949 µM): 26.3%
- viability, T/C (second compound 3.16 µM, first compound 3 µM): 24.9%
- viability, T/C (second compound 10 µM, first compound 0.00949 µM): 1.57%
- viability, T/C (second compound 10 µM, first compound 0.03 µM): 1.26%
- viability, T/C (second compound 10 µM, first compound 0.0949 µM): 1.76%
- viability, T/C (second compound 10 µM, first compound 0.3 µM): 2.84%
- viability, T/C (second compound 10 µM, first compound 0.949 µM): 2.94%
- viability, T/C (second compound 10 µM, first compound 3 µM): 4.72%

- IC50 (curve of compound): 628 nM and 828 nM and 812 nM
SMILES: COc1cccc2c1C(=O)c1c(O)c3c(c(O)c1C2=O)CC(O)(C(=O)CO)CC3OC1CC(N)C(O)C(C)O1 (centres undefined)
- viability, T/C (compound 0.0316 µM): 88% and 108% (2×)
- viability, T/C (compound 0.1 µM): 82.8% and 79.7% and 87.9%
- viability, T/C (compound 0.316 µM): 65.5% and 75.9% and 69.5%
- viability, T/C (compound 1 µM): 40.7% and 49.1% and 47.5%
- viability, T/C (compound 3.16 µM): 9.35% and 15.7% and 20.4%
- viability, T/C (compound 10 µM): 0.71% and 0.83% and 1.09%

- IC50 [1]: > 10000 nM
- IC50 [2]: > 10000 nM
- IC50 [3]: > 10000 nM
- IC50 [4]: 5510 nM
- IC50 [5]: < 31.6 nM
SMILES: COc1cc(C2c3cc4c(cc3C(OC3OC5COC(C)OC5C(O)C3O)C3COC(=O)C23)OCO4)cc(OC)c1O (centres undefined) + Cc1cncc(-c2nc(NCCc3c[nH]c4ccccc34)c3ncn(C(C)C)c3n2)c1
- viability, T/C [6]: 105%
- viability, T/C [7]: 96.7%
- viability, T/C [8]: 102%
- viability, T/C [9]: 93.8%
- viability, T/C [10]: 84.6%
- viability, T/C [11]: 63.4%
- viability, T/C [12]: 112%
- viability, T/C [13]: 110%
- viability, T/C [14]: 96.8%
- viability, T/C [15]: 85.4%
- viability, T/C [16]: 77.9%
- viability, T/C [17]: 71.5%
- viability, T/C [18]: 89.7%
- viability, T/C [19]: 126%
- viability, T/C [20]: 115%
- viability, T/C [21]: 93.3%
- viability, T/C [22]: 72.2%
- viability, T/C [23]: 64.5%
- viability, T/C [24]: 60.3%
- viability, T/C [25]: 64.1%
- viability, T/C [26]: 62.8%
- viability, T/C [27]: 54.3%
- viability, T/C [28]: 51.6%
- viability, T/C [29]: 47.9%
- viability, T/C [30]: 1.19%
- viability, T/C [31]: 1.35%
- viability, T/C [32]: 1.7%
- viability, T/C [33]: 1.47%
- viability, T/C [34]: 1.3%
- viability, T/C [35]: 2.49%

The remaining lines, values behind:

SMILES: Nc1ccccc1NC(=O)c1ccc(CNC(=O)OCc2cccnc2)cc1 + Cc1ccccc1N=Nc1ccc(NC(=O)c2ccnn2C)c(C)c1
- IC50 [1]: 1140 nM
- IC50 [2]: 895 nM
- IC50 [3]: 1080 nM
- IC50 [4]: 940 nM
- IC50 [5]: 1390 nM
- viability, T/C [6]: 89.8%
- viability, T/C [7]: 95.3%
- viability, T/C [8]: 88.6%
- viability, T/C [9]: 54%
- viability, T/C [10]: 13.7%
- viability, T/C [11]: 1.74%
- viability, T/C [12]: 103%
- viability, T/C [13]: 93.3%
- viability, T/C [14]: 78.7%
- viability, T/C [15]: 48.4%
- viability, T/C [16]: 14.3%
- viability, T/C [17]: 1.58%
- viability, T/C [18]: 87.8%
- viability, T/C [19]: 78.3%
- viability, T/C [20]: 77.3%
- viability, T/C [21]: 53%
- viability, T/C [22]: 15.2%
- viability, T/C [23]: 2.52%
- viability, T/C [24]: 73.9%
- viability, T/C [25]: 75.5%
- viability, T/C [26]: 69.3%
- viability, T/C [27]: 48%
- viability, T/C [28]: 20%
- viability, T/C [29]: 3.32%
- viability, T/C [30]: 76.8%
- viability, T/C [31]: 88.6%
- viability, T/C [32]: 79.4%
- viability, T/C [33]: 54.3%
- viability, T/C [34]: 32.1%
- viability, T/C [35]: 10.9%

SMILES: CC1(C)CCC(CN2CCN(c3ccc(C(=O)NS(=O)(=O)c4ccc(NCC5CCOCC5)c([N+](=O)[O-])c4)c(Oc4cnc5[nH]ccc5c4)c3)CC2)=C(c2ccc(Cl)cc2)C1
- viability, T/C (compound 0.0316 µM): 100% and 112% and 101%
- viability, T/C (compound 0.1 µM): 105% and 99.6% and 110%
- viability, T/C (compound 0.316 µM): 94.1% and 105% and 96.2%
- viability, T/C (compound 1 µM): 98.5% and 101% and 95.5%
- viability, T/C (compound 3.16 µM): 98.2% (2×) and 102%
- viability, T/C (compound 10 µM): 46.4% and 19.4% and 17.5%
- IC50 (curve of compound): 9240 nM and 6400 nM and 6390 nM

SMILES: Nc1ccccc1NC(=O)c1ccc(CNC(=O)OCc2cccnc2)cc1 + Cc1cncc(-c2nc(NCCc3c[nH]c4ccccc34)c3ncn(C(C)C)c3n2)c1
- IC50 [1]: 849 nM
- IC50 [2]: 563 nM
- IC50 [3]: 571 nM
- IC50 [4]: < 31.6 nM
- IC50 [5]: < 31.6 nM
- viability, T/C [6]: 93%
- viability, T/C [7]: 89.2%
- viability, T/C [8]: 68.7%
- viability, T/C [9]: 53.4%
- viability, T/C [10]: 4.49%
- viability, T/C [11]: 0.69%
- viability, T/C [12]: 100%
- viability, T/C [13]: 90.4%
- viability, T/C [14]: 67.2%
- viability, T/C [15]: 34.5%
- viability, T/C [16]: 3.29%
- viability, T/C [17]: 0.43%
- viability, T/C [18]: 78.4%
- viability, T/C [19]: 87.5%
- viability, T/C [20]: 62.8%
- viability, T/C [21]: 36.5%
- viability, T/C [22]: 2.86%
- viability, T/C [23]: 0.16%
- viability, T/C [24]: 34%
- viability, T/C [25]: 23.7%
- viability, T/C [26]: 21%
- viability, T/C [27]: 10.6%
- viability, T/C [28]: 3.34%
- viability, T/C [29]: 0.15%
- viability, T/C [30]: 0.75%
- viability, T/C [31]: 0.81%
- viability, T/C [32]: 0.77%
- viability, T/C [33]: 0.69%
- viability, T/C [34]: 0.77%
- viability, T/C [35]: 0.17%
